Laboratory results: patent publication US20250040554A1, “NEW USES OF PHENMEDIPHAM AND HERBICIDAL COMBINATIONS COMPRISING PHENMEDIPHAM” (BAYER AKTIENGESELLSCHAFT, priority 2021, published 2025)

Legend:
Format in all cases: in vivo
Conditions in all cases: 20 g/ha, 15 DAA
[1] = system: AMARE=Amaranthus retroflexus; assay: Weed control field trial AMARE
From the text: (§1) The respective (combinations of) materials were applied to weed plants in the greenhouse or in the field at the respective growth stage indicated hereinafter for the different weed species mentioned below. The respective (combinations of) active ingredients were also applied to corn, cotton and soybean crop plants, and the selectivity (damage) in these crop plants rated (assessed).
(§2) Visual scoring of the damage to the trial plants took place after the time mentioned in the respective Table—indicated in number of Days After Application (DAA). Damage and development of all above-ground parts of the respective plants was recorded. Visual rating was done on a percentage scale in relation to the untreated control (100%=all plants dead; 50%=green plant biomass reduced by 50%, and 0%=no discernible difference=like control plot).
(§3) wherein • A, B=respective value in percent of active ingredient A at a dose rate of a g/ha, ingredient B at a dose rate of b g/ha • E^C=Expected value according to Colby (S. R. Colby; Weeds 15 (1967), 20-22) in % at a dose rate of a+b, each in g/ha • Δ=Difference (in %) between measured value E and expected value E^C (%) (measured value minus expected value)
(§4) After the harmful plants had emerged, they were treated, at the respective growth stage indicated, with the respective materials as indicated at a water application rate of 187 L/ha.
(§5) After the treatment (15 days after the treatment), the herbicidal activity of respective material was scored visually at the same time by comparing the differently treated plots with the untreated control plots. The score figures of the different plots were averaged.
(§6) The dose rates of herbicidal ingredients used in each case are indicated for the respective active ingredient and refer to the amount of active ingredient per hectare (g/ha).
(§7) The weed control activity of different (combinations of) herbicidal active ingredients was investigated in field trials for the following weed species: • AMARE=Amaranthus retroflexus • KCHSC=Kochia scoparia • PANRA=Panicum ramosum
(§8) The growth stage of AMARE was BBCH 19, the growth stage of KCHSC was BBCH 19 and the growth stage of PANRA was BBCH 22 at the time of application of the respective material.
(§9) Phenmedipham and the respective aroylcyclohexanedione herbicide were applied at varying application rates (Dose Rate) to the different species of weed plants. The results are shown in Tables 4a to 4d as the % control when assessed 15 days after application (DAA), respectively.
(§10) In all the trials of Tables 4a to 4d Mero® (rapeseed oil methyl ester) was added to the respective spray mixture in an amount corresponding to 1 L/ha for PMP, 1 L/ha for the respective aroylcyclohexanedione herbicide, and 2 L/ha for mixtures of PMP+the respective aroylcyclohexanedione herbicide.

[2] = system: KCHSC=Kochia scoparia; assay: Weed control field trial KCHSC
From the text: as §1, §2, §3, §4, §5, §6, §7, §8, §9, §10

[3] = system: PANRA=Panicum ramosum; assay: Weed control field trial PANRA
From the text: as §1, §2, §3, §4, §5, §6, §7, §8, §9, §10

Row | SMILES | % control AMARE [1] | % control KCHSC [2] | % control PANRA [3]
1 | CS(=O)(=O)c1ccc(C(=O)C2C(=O)CCCC2=O)c(Cl)c1 [SCT, 2-[2-chloro-4-(methylsulfonyl)benzoyl]cyclohexane-1,3-dione] | 5% | 5% | –
2 | CS(=O)(=O)c1ccc(C(=O)C2C(=O)CCCC2=O)c(Cl)c1COCC(F)(F)F [TBT, 2-{2-chloro-4-(methylsulfonyl)-3-[(2,2,2-trifluoroethoxy)methyl]benzoyl}cyclohexane-1,3-dione] | 35% | 20% | 20%
